Measured values published in US8932613B2, “Ectoparasite control method” (E I du Pont de Nemours and Company, priority 2007, dated 2015).

What was measured:
[1] = test system: Adult A. aegypti; assay: Adult A. aegypti contact assay; conditions: treated flask base, bioassay run for 8 hrs
Protocol: Adult A. aegypti were exposed to six rates of the positive control compound permethrin and the experimental compounds diluted with acetone. The dilutions of test compound (3-bromo-1-(3-chloro-2-pyridinyl)-N-[4-cyano-2-methyl-6-[(methylamino)carbonyl]phenyl]-1H-pyrazole-5-carboxamide)used were 0 ppm (acetone only), 0.1 ppm, 1 ppm, 10 ppm, 20 ppm, 50 ppm, 100 ppm, 500 ppm and 1000 ppm. Each rate was replicated 5 times. The test was conducted in 100 mL conical flasks. The entire inside of the flasks was coated with Coatasil the day before the treatments are applied. A 0.5 ml aliquot of each rate was applied to the bases only of the flasks. At 24 hours after the surfaces had been treated adult A. aegypti were anaesthetised using food grade carbon dioxide and 10 mosquitoes were introduced to each conical flask and the mouths of the flasks covered with parafilm. Small holes were made in the parafilm to allow gas exchange. The bioassay was run for 8 hrs at 25±2° C. and relative humidity of approximately 70%.

[2] = test system: cat flea (Ctenocephalides felis Bouche); assay: In vivo evaluation against artificial infestations with cat fleas on mice; conditions: CD-1 mouse, 10 mg/kg oral in propylene glycol/glycerol formal (60:40), fleas applied 2 h after dosing, evaluated 48 hours after flea application
Protocol: For evaluating control of the cat flea (Ctenocephalides felis Bouche), a CD-1® mouse (about 30 g, male, obtained from Charles River Laboratories, Wilmington, Mass.) was orally dosed with test compound in an amount of 10 mg/kg solubilized in propylene glycol/glycerol formal (60:40). Two hours after oral administration of the test compound, approximately 8 to 16 adult fleas were applied to each mouse. The fleas were then evaluated for mortality 48 hours after flea application to the mouse.

[3] = test system: adult H. irritans exigua; assay: Adult H. irritans exigua feeding assay (blood meal assay); conditions: for mortality at 0.2 ppm: 200 ppb in bovine blood; for mortality at 0.4 ppm: 400 ppb in bovine blood; for mortality at 0.6 ppm: 600 ppb in bovine blood
Protocol: A blood meal assay was used to determine the LC50 for test compound (3-bromo-1-(3-chloro-2-pyridinyl)-N-[4-cyano-2-methyl-6-[(methylamino)carbonyl]phenyl]-1H-pyrazole-5-carboxamide) on adult H. irritans exigua. Six (6) serial dilutions of the test compound were prepared in decoagulated bovine blood that was stored refrigerated. Ivermectin was included as a positive control compound and a negative control was included in each assay. Flies were collected with a net immediately before each assay from yarded commercial cattle. About 100 adults were introduced into a mesh cage (30×30×30 cm) containing one cotton gauze (4×4×1 cm) soaked in one blood/insecticide concentration. There were 3 replicate cages of each blood/insecticide concentration. Blood gauzes were replaced every 12 hours. The untreated control cages received untreated decoagulated blood. All cages were labelled and stored for 72 hours at 25-27° C. in the dark at ambient relative humidity (70-85%). […] At 72-96 hours all flies were counted and percentage mortality was calculated. Data was subjected to log-probit analysis to determine the LC50 if there is a dose response in the assay.

[4] = test system: Brown Dog Ticks (R. sanguineus); assay: In vivo evaluation against artificial infestations with brown dog ticks on dogs; conditions: topical, test compound 60 mg/kg line-on in NMP, 9 days post-treatment
Source text: Twenty five dogs were used in this study that investigated the efficacy of test compound (3-bromo-1-(3-chloro-2-pyridinyl)-N-[4-cyano-2-methyl-6-[(methylamino)carbonyl]phenyl]-1H-pyrazole-5-carboxamide)
against fleas and ticks. Two groups (one treated and one untreated) of five dogs were used to evaluate the flea efficacy whilst two groups of five dogs (one treated and one untreated) were used to investigate the tick efficacy. The dogs in the respective groups were infested weekly with 40 unfed adult ticks and 100 cat fleas. One group was treated with ADVANTIX and served as a positive control. The dogs in this group were infested simultaneously with fleas and ticks. Test compound was formulated in NMP. The treatment was applied topically via syringe on the dorsal line of the animals as a line-on at 60 mg/kg dose rate. The efficacy of the compound was assessed by weekly tick and flea counts. The weekly counts generated in the treated groups were compared to the positive and negative untreated control (UTC) group counts to evaluate efficacy of Test compound.

Row | Compound | LC90 [1] | flea mortality [2] | mortality at 0.2 ppm ([3]; exposure time 7 hr) | mortality at 0.2 ppm ([3]; exposure time 17 hr) | mortality at 0.2 ppm ([3]; exposure time 24 hr) | mortality at 0.4 ppm ([3]; exposure time 7 hr) | mortality at 0.4 ppm ([3]; exposure time 17 hr) | mortality at 0.4 ppm ([3]; exposure time 24 hr) | mortality at 0.6 ppm ([3]; exposure time 7 hr) | mortality at 0.6 ppm ([3]; exposure time 17 hr) | mortality at 0.6 ppm ([3]; exposure time 24 hr) | efficacy against ticks [4]
1 | CC1(C)C(C=C(Cl)Cl)C1C(=O)OCc1cccc(Oc2ccccc2)c1 (stereo not shown) [Permethrin, reference compound] | 0.046 ug/flask |  |  |  |  |  |  |  |  |  |  | 
2 | CNC(=O)c1cc(C#N)cc(C)c1NC(=O)c1cc(Br)nn1-c1ncccc1Cl [Test compound, 3-bromo-1-(3-chloro-2-pyridinyl)-N-[4-cyano-2-methyl-6-[(methylamino)carbonyl]phenyl]-1H-pyrazole-5-carboxamide] | 0.033 ug/flask | 45% | 77.3% | 78.8% | 80.3% | 78.8% | 89.8% | 94.9% | 80.5% | 94.7% | 96.5% | over 94.9%
